From publication PMC10879279 (Frontiers in Behavioral Neuroscience, 2024)
Entries after “also recorded” stand apart in the source; their conditions may differ. Where two headings read alike, the source gives them in different places.

How the values were obtained:
mGluR5 = assay: Luciferase reporter assay, mGluR5; details: transfected control cells; for antagonist effect on mGluR5 activity (in words): SIB 1757 10 μM + CHPG 1 mM
Description: Ultimately, a chemiluminescent signal is produced by the promoter-driven reporter expression that is directly proportional to activation or inhibition of a specific GPCR in the cells ([Unal, 2019]).
Briefly, the HEK293 cell line was transfected with three types of plasmids using polyethylenimine (PEI, 408727, Sigma-Aldrich, United States) 24 h prior to agonist application. Plasmid 1 encodes the GRM5–tTA fusion protein. The linker between mGluR5 and tTA is sensitive to TEV protease.^1 In case of testing the activity of LCGM-10 peptide toward mGluR1 and mGluR4, we applied the plasmids encoding GRM1-tTA^2 and GRM4-tTA^3 fusion proteins, respectively. Plasmid 2 encodes β-arrestin2–TEV protease fusion protein.^4 Plasmid 3 encodes the luciferase tTA reporter.^5 Transfected cells were treated with agonist/antagonist and incubated overnight (16 h). Antagonists were introduced 10 min prior to agonists. […] The luciferase test was performed using Promega™ Luciferase Assay Systems Kit (PR-E1500, Promega, United States) according to the manufacturer’s protocol.
Statistical analyses were performed using GraphPad Prism 9.5 (GraphPad Software, United States). The in vitro luciferase reporter assay was performed in three biological replicates and analyzed with two-way analysis of variance with the post hoc Bonferroni multiple comparison test. […] Differences between groups were considered significant at p < 0.05.

mGluR1 = assay: Luciferase reporter assay, mGluR1; format: cell-based; details: DHPG 10 µM; (−)-PHCCC 40 µM; HEK293, N = 3
Description: (§1) Figure S5. The mGluR1- and mGliR4-luciferase reporter assay results. HEK293 cells transfected with genetic reporter systems were treated with DHPG (10 µM) or DHPG (10 µM) + (−)-PHCCC (40 µM) in the case of mGluR1 and with L-AP4 (1 µM) or L-AP4 (1 µM) + (−)-PHCCC (40 µM) in the case of mGluR4. LCGM-10 was administered at a dose of 20 and 200 µM. […] The data are presented as the mean ± standard deviation for three biological replicates (N=3 in each group). * P < 0.01 versus the transfected control + control agonist.

mGluR4 [1] = assay: Luciferase reporter assay, mGluR4; format: cell-based; details: L-AP4 1 µM; (−)-PHCCC 40 µM; HEK293, N = 3
Description: as §1

human mGluR5 = assay: Calcium flux imaging, CHO-mGluR5 cells; format: cell-based
Source text: mGluR5 activation leads to Ca^2+ influx that could be blocked by adding a specific antagonists or NAMs ([Kettunen et al., 2002]; [Beggiato et al., 2018]). Elevation of intracellular Ca^2+ levels via the phospholipase C pathway is typical for all Gq-coupled GPCRs ([Liu et al., 2008]) and can be detected using a penetrating Ca^2+ indicator.
The CHO cell line stably expressing human mGluR5 was generated using T-Rex System (Thermo Fisher Scientific Inc., United States) according to the manufacturer’s instructions. Briefly, complementary DNA (cDNA) encoding human mGluR5 was subcloned into the pcDNA4/TO inducible expression vector, which was transfected into CHO cells carrying the pcDNA6/TR regulatory vector that expresses the tetracycline repressor. After 2 weeks of selection using 5 μg/mL blasticidin (Thermo Fisher Scientific Inc.) and 250 μg/mL zeocin (Thermo Fisher Scientific Inc.), pools of cells were screened for the expression of mGluR5 in the agonist-induced Ca^2+ uptake assay. Positive cells were expanded and used. mGluR5 expression was induced by adding up to 1 μg/mL of tetracycline (Thermo Fisher Scientific Inc.) 16 h before testing.
Fluorescent assays were performed using NOVOstar (BMG LABTECH, Germany). CHO-mGluR5 cells were seeded into black-walled, clear-bottomed 96-well plates at a density of 75,000 cells per well (complete media without antibiotics and containing 1 μg/mL of tetracycline to induce receptor expression) and were cultured overnight at 37°C. The cells were then loaded with the cytoplasmic calcium indicator Fluo-4 AM using the Fluo-4 Direct™ Calcium Assay Kits (Thermo Fisher Scientific Inc.) and incubated in the dark at 37°C for 60 min, and then at 25°C for 60 min. The buffer alone (control) or the buffer containing different concentrations of LCGM-10 (0.02, 2, 20, and 200 μM), LCGM-15 (0.02, 2, 20, and 200 μM), or 2-methyl-6-(phenylethynyl) pyridine ([MPEP] 0.1, 1, 10, and 100 μM; Sigma-Aldrich, United States) were added to the cells (in six replicate wells). […] The measurements were performed at pH 7.4 and 37°C.

rodents = details: ref Guimaraes et al., 2015, cited from earlier work
Source text: Therefore, we evaluated the potential of LCGM-10 as a therapeutic in male rats submitted to the OF and EPM. […] The importance of mGluR5 for modulating motor behavior has been reported in pharmacological ([Mcgeehan et al., 2004]; [Guimaraes et al., 2015]) as well as knockout ([Gray et al., 2009]; [Jew et al., 2013]; [Ribeiro et al., 2014]) studies in rodents, with so ...

mGluR4 [2] = details: ref Mathiesen et al., 2003; Dalton et al., 2017; cited from earlier work
ADHD patients = details: cited from earlier work; for effect size of non-stimulants: medium range, smaller than stimulants, ref Cortese et al., 2018
Source text: To sum up, the development of new medications for disorders with an excessive impulsivity as a major component is of high interest for both academy and industry. Addictions, including substance use disorder and gambling, faces the unmet need for novel medicines ([Rash et al., 2016]). In case of ADHD there is also a need for new medications with novel mechanisms of action since currently approved drugs show a non-response or lack efficacy in a significant number of patients ([Mechler et al., 2022]). Routinely used stimulant methylphenidate is efficient in up to 70% of cases ([Bodey, 2011]), and ...

zebrafish [3] = tested on: zebrafish; set-up: method as in Maximino et al., 2014; details: similar to LCGM-10 and LCGM-15, ref Maximino et al., 2014, cited from earlier work
Wistar rats = assay: Home cage spontaneous locomotor activity (SLA); format: in vivo, rat (Wistar)
Description: Wildtype D. rerio (128 fish, shortfin phenotype, 6–8 months of age, male to female ratio 50: 50) were kept in a ZebTEC recirculating system (Tecniplast S.p.a, Buguggiate, Italy), and housed under a 14/10-h photoperiod (lights on at 08: 00 and off at 22: 00). The system parameters were maintained automatically with water set at 28°C, pH 6.8–7.5, […], and constant aeration. Feeding was carried out twice a day with special food for fish (Special Diet Services, Scientific Fish Food, SDS 300–400). In total, 30 male Sprague Dawley rats were used in the behavioral screening study, and 53 male Wistar rats in the locomotion study (N = 23) and the delay discounting test (N = 30). The animals were housed under constant environmental conditions (12-h photoperiod at 22 ± 2°C) with ad libitum access to food and water. All animal experiments were conducted in accordance with the European Directive 2010/63/EU of the European Parliament (Council of 22 September 2010 on the protection of animals used for scientific purposes) and were approved by the local Bioethics Commissions. All manipulations with animals were carried out at the end of the 14-day adaptation period.
We administered LCGM peptides intranasally. Peptides were dissolved in saline at a concentration appropriate for the dosage. For administration, the rat was held in a horizontal position, with its head slightly tilted back. Then, using an automatic laboratory pipette, no more than 10 μL of the peptide solution was carefully introduced into each nostril of the rat. After visually confirming that the entire volume of liquid entered the animal’s nose, the rats were returned to their home cage. […] This route of administration has several advantages for short peptides, such as rapid systemic drug absorption and the potential to bypass the blood–brain barrier more effectively and access the central nervous system ([Pires et al., 2009]; [Lochhead and Thorne, 2012]). For patients, this method is relatively noninvasive and limits the side effects associated with peripheral administration of substances ([Meredith et al., 2015]).
Spontaneous locomotor activity (SLA) was measured using the Activiscop setup (NewBehavior Inc., Switzerland) ([Madani et al., 2003]). The animals were kept in home cages with free access to food and water. Motor activity was recorded using an infrared sensor located above each cage. The experiment lasted 2 days: On the first day, baseline activity was recorded, and then Wistar rats received LCGM-10 (5 mg/kg in saline, intranasal) and caffeine (30 mg/kg in saline, intraperitoneal) and were recorded for another 24 h. The days were divided into day 1 (12: 00–18: 59), night (19: 00–06: 59), and day 2 (07: 00–11: 59). The results are presented as the number of behavioral acts per minute (arbitrary units [a.u.]) for each animal. The experiment was performed by the Serbsky National Medical Research Center for Psychiatry and Narcology on a contract basis.

mice = tested on: mice; set-up: method as in Kobayashi et al., 2020; details: caffeine 25 mg/kg, ref Kobayashi et al., 2020; cited from earlier work
zebrafish [4] = details: ref Malyshev et al., 2021; cited from earlier work
Source text: We carried out the two most common tests to evaluate the fish response to the stressful conditions of novelty (NTT) and bright light (LDB). Figure 1 represents the summary data of the effects of the LCGM peptides on the NTT and LDB results relative to each group control, expressed as z-scores. The Supporting Information contains the examples of motor tracks (Supplementary Figures S1, S2), and primary data (Supplementary Figures S3, S4), and Table 2 provides the results of the two-way ANOVA.

animal models = details: ref Wooters and Bardo, 2011; cited from earlier work
Source text: (§2) Delay discounting tasks are also used to assess impulsive behavior in human studies, giving an insight into causal mechanism of addictions such as substance abuse and gambling ([Reynolds, 2006]; [de Wit, 2009]; [Hodgins and Holub, 2015]), and ADHD ([Barkley et al., 2001]; [Scheres et al., 2008]; [Shiels et al., 2009]). Impulsivity in the human and rodent delay discounting task derives form the similar neural substrates: lower D2/3 receptor availability in ventral striatum of rats and pathological gamblers, individuals with methamphetamine dependence, and alcohol use disorder ([Voon and Dalley, ...

human = details: ref Shiels et al., 2009; cited from earlier work
Source text: as §2

Structure (SMILES): NC(C(=O)O)c1cc(O)ccc1Cl (racemic) [CHPG]
- agonist effect on luciferase signal (in words) (mGluR5; CHPG 1 mM): enhanced; also recorded: induced a luciferase signal

Structure (SMILES): O=C(Nc1ccccc1)C12CC1/C(=N\O)c1ccccc1O2 (single isomer, unassigned; (-)) [(−)-PHCCC]
- reference ligand effect on mGluR1 (in words) (mGluR1): inhibited DHPG-induced mGluR1 activity
- reference ligand effect on mGluR4 (in words) (mGluR4 [1]): enhanced L-AP4-induced mGluR4 activity

Structure (SMILES): N[C@H](C(=O)O)c1cc(O)cc(O)c1 [DHPG]
- reference ligand effect on mGluR1 (in words) (mGluR1): induced luciferase signals

Structure (SMILES): N[C@@H](CCC(=O)O)C(=O)[O-].[Na+] [GluNa]
- agonist effect on Ca2+ (in words) (human mGluR5; GluNa 1 mM vs non-activated cells, peak fluorescence, N = 7 (activated), N = 5 (basal)): enhanced fluorescence peak intensity; also recorded: enhanced Ca^2+ influx

Structure (SMILES): N[C@@H](CCP(=O)(O)O)C(=O)O [L-AP4]
- reference ligand effect on mGluR4 (in words) (mGluR4 [1]): induced luciferase signals

Structure (SMILES): Cc1cccc(C#Cc2ccccc2)n1 [MPEP, 2-methyl-6-(phenylethynyl) pyridine]
- effect on GluNa-evoked Ca2+ influx (in words) (human mGluR5; vs 1 mM GluNa, Fluo-4 AM, 3 min preincubation 37°C, pH 7.4, peak fluorescence, N = 6): effectively blocked GluNa-evoked calcium oscillations in cells at all tested doses
- concentrations with significant reduction of intracellular Ca2+ levels (human mGluR5; vs activated control (1 mM GluNa), peak fluorescence, q < 0.05, N = 6 each): 0.1 to 100 µM
- effect on locomotion (in words) (rodents; applied to olfactory bulbs, dorsolateral striatum, dorsal hippocampus): stimulatory effect on locomotion
- brain regions without locomotor stimulation (in words) (rodents; local application): not primary motor area and ventral striatum
- PAM activity at mGluR4 (in words) (mGluR4 [2]): able to act as PAMs of mGluR4

Structure (SMILES): Cc1nc(C#Cc2cccnc2)cs1 [MTEP]
- PAM activity at mGluR4 (in words) (mGluR4 [2]): The effect is not observed

Structure (SMILES): Cc1ccc(O)c(N=Nc2ccccc2)n1 [SIB 1757]
- PAM activity at mGluR4 (in words) (mGluR4 [2]): The effect is not observed
- antagonist effect on mGluR5 activity (in words) (mGluR5): inhibited mGluR5 activity
- antagonist effect on mGluR5 activity (in words) (mGluR5; listed as SIB1757): depleted

Structure (SMILES): Cc1cccc(/C=C/c2ccccc2)n1 [SIB-1893]
- PAM activity at mGluR4 (in words) (mGluR4 [2]): able to act as PAMs of mGluR4

Structure (SMILES): CNCC[C@@H](Oc1ccccc1C)c1ccccc1 [atomoxetine]
- effect size of non-stimulants (ADHD patients): ≤ 60%

Structure (SMILES): CC(NC(C)(C)C)C(=O)c1cccc(Cl)c1 (stereo not shown) [bupropion]
- effect on locomotion (in words) (zebrafish [3]; bupropion 30 mg/kg): motor-stimulating effects

Structure (SMILES): Cn1c(=O)c2c(ncn2C)n(C)c1=O [caffeine]
- SLA at night (in words) (Wistar rats; LCGM-10 5 mg/kg intranasal or caffeine 30 mg/kg intraperitoneal, night (19:00–06:59), F2, 20 = 0.6, p = 0.56): no effects of treatment on the nighttime activity
- duration of SLA increase after administration (Wistar rats; LCGM-10 5 mg/kg intranasal, caffeine 30 mg/kg intraperitoneal, 30-min intervals): up to 90 min
- SLA on day 1 (in words) (Wistar rats; caffeine 30 mg/kg intraperitoneal, day 1 (12:00–18:59), N = 7–8): enhanced SLA; also recorded: significant induction of SLA
- SLA on day 2 (in words) (Wistar rats; caffeine 30 mg/kg intraperitoneal, day 2 (07:00–11:59), N = 7–8): hypokinesia; also recorded: significant reduction in SLA
- hypokinetic rebound (in words) (Wistar rats; single administration, LCGM-10 compared with caffeine): followed by a locomotor depression
- effect on locomotion (in words) (zebrafish [3]; caffeine 10 mg/kg): motor-stimulating effects
- duration of SLA increase (mice): up to 3 h

Structure (SMILES): Clc1cccc(Cl)c1N=C1NCCN1 [clonidine]
- effect size of non-stimulants (ADHD patients): ≤ 60%

Structure (SMILES): CN1C(=O)CN=C(c2ccccc2)c2cc(Cl)ccc21 [diazepam]
- anxiolytic-like activity (in words) (zebrafish [4]): anxiolytic-like activity

Structure (SMILES): N=C(N)NC(=O)Cc1c(Cl)cccc1Cl [guanfacine]
- effect size of non-stimulants (ADHD patients): ≤ 60%

Structure (SMILES): COC(=O)C(c1ccccc1)C1CCCCN1 (stereo not shown) [methylphenidate]
- discounting of delayed rewards (in words) (animal models): reduced discounting of delayed rewards
- discounting of delayed rewards (in words) (human): reduced discounting of delayed rewards
- efficient in percent of cases (ADHD patients; ref Bodey, 2011): up to 70%
